Legend:
[1] = Plasma concentration in nude mouse at 50 mg/kg, po after 24 hrs; assay type: ADME, organism-based; parameters: dose 50 mg/kg, route oral
HT-29 = test: In vivo antitumor activity against human HT-29 cells at 150 mg/kg, po qd for 14 days measured on day 21; assay type: functional
[2] = Half life in rat liver microsomes; assay type: ADME, Microsome
[3] = target: Serine/threonine-protein kinase mTOR (Homo sapiens, UniProt P42345); test: Inhibition of mTOR
[4] = target: Mitogen-activated protein kinase kinase kinase 8 (Homo sapiens, UniProt P41279); test: Inhibition of TPL2
Mitogen-activated protein kinase kinase kinase 8, sequence (P41279 whole entry): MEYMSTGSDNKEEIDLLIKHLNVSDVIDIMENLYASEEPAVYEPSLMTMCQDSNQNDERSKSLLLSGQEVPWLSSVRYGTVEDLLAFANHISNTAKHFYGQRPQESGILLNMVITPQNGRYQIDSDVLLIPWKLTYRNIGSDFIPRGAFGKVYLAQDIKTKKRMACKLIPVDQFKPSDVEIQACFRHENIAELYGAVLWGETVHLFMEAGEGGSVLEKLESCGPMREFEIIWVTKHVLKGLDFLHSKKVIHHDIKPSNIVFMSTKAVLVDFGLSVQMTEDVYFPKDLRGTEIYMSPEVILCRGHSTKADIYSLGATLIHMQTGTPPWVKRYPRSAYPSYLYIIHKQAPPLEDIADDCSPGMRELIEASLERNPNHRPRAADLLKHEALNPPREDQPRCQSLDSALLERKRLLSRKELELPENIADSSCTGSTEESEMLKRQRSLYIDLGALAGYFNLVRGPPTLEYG

[5] = Half life in nude mouse microsomes; assay type: ADME, Microsome
[6] = Inhibition of IKK
[7] = target: Tyrosine-protein kinase ABL1 (Homo sapiens, UniProt P00519); test: Inhibition of Abl
Tyrosine-protein kinase ABL1, sequence (P00519 whole entry): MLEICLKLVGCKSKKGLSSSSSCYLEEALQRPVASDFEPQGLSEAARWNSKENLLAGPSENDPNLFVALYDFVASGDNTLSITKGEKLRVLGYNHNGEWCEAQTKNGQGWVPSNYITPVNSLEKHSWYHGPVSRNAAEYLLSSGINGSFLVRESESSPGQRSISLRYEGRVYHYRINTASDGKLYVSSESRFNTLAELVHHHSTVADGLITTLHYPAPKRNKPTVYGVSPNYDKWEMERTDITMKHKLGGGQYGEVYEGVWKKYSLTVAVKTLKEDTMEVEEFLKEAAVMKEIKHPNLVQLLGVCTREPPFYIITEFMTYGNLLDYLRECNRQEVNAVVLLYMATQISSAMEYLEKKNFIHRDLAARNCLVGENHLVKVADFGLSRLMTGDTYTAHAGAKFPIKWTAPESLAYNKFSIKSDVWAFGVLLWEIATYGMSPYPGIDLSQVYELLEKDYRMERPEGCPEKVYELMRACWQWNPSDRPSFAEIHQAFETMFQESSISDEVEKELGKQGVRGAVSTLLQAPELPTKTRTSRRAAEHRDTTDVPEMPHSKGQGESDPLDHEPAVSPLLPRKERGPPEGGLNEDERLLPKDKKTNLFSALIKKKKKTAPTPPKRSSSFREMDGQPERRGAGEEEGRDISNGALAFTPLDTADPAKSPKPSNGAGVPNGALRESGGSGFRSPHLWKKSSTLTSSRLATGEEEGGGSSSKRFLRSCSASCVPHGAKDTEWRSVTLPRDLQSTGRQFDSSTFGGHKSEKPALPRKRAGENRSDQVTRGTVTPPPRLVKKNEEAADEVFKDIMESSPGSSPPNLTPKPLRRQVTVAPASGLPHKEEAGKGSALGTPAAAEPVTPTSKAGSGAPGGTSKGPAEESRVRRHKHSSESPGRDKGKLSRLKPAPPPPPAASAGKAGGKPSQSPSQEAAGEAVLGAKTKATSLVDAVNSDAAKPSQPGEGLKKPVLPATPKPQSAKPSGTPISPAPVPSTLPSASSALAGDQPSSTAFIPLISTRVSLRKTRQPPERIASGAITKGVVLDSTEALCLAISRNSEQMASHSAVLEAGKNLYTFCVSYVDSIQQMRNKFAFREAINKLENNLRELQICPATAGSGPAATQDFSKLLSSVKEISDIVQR

[8] = target: RAC-alpha serine/threonine-protein kinase (Homo sapiens, UniProt P31749); test: Inhibition of AKT
RAC-alpha serine/threonine-protein kinase, sequence (P31749 whole entry): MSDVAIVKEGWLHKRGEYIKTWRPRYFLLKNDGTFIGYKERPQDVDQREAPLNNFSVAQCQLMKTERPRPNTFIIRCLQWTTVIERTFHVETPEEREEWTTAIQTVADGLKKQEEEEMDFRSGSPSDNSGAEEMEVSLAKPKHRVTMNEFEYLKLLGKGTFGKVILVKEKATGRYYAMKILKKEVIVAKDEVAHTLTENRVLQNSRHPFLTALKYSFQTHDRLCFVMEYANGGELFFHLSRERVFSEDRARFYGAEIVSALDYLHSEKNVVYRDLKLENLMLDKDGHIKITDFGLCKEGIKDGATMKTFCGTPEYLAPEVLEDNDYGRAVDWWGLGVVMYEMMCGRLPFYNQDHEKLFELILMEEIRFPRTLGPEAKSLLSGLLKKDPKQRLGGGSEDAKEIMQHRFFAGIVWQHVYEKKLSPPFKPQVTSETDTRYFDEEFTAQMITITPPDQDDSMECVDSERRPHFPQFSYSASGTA

[9] = target: T1, Proto-oncogene tyrosine-protein kinase Src (Homo sapiens, UniProt P12931)
T1 sequence (P12931 2-536 limits assumed): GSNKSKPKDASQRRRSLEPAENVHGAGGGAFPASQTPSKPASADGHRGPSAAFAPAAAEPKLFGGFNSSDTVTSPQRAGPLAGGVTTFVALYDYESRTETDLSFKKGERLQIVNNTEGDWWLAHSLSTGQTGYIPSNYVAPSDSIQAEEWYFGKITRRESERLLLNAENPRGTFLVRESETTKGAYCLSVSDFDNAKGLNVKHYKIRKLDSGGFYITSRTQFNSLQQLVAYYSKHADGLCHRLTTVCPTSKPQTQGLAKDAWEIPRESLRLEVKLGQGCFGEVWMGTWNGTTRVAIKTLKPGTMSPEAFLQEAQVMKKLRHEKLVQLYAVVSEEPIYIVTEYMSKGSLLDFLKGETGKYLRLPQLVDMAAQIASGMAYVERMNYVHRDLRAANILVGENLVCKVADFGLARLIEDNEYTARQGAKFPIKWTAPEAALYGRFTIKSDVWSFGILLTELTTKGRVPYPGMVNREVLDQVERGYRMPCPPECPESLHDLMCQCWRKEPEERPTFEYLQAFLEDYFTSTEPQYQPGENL
Description: Inhibition of human recombinant Src after 70 mins by FRET assay

[10] = Inhibition of IGFR
[11] = Half life in human microsomes; assay type: ADME, Microsome
[12] = target: T1, Proto-oncogene tyrosine-protein kinase Src; test: Inhibition of human recombinant Src at 10 uM after 70 mins by FRET assay

Compound COc1cc(Nc2c(C#N)cnc3cc(OCCCN4CCN(C)CC4)c(OC)cc23)c(Cl)cc1Cl [BOSUTINIB] has a concentration at 24 h [1] of 40 ng/mL and a T/C (HT-29) of 0.43.
COc1cc(Nc2c(C#N)cnc3cc(/C=C/CCN4CCN(C)CC4)c(OC)cc23)c(Cl)cc1Cl showed a half-life [2] of 10 min, an IC50 [3] greater than 10000 nM and an IC50 [4] greater than 10000 nM. For the same compound, the T/C (HT-29) was 0.36, the half-life [5] was 33 min and the IC50 [6] was greater than 10000 nM. The IC50 [7] was 0.4 nM, the IC50 [8] was greater than 10000 nM and the IC50 [9] was 2.1 nM. It also gave an IC50 [10] greater than 10000 nM and a half-life [11] of 11 min.
In the case of COc1cc(Nc2c(C#N)cnc3cc(/C=C/CN4CCOCC4)c(OC)cc23)c(Cl)cc1Cl, the IC50 [9] is reported as 8.7 nM.
For COc1cc(Nc2c(C#N)cnc3cc(/C=C/c4cccc(CN(C)C)n4)c(OC)cc23)c(Cl)cc1Cl, the concentration at 24 h [1] was 28 ng/mL and the IC50 [9] was 2.2 nM.
COc1cc(Nc2c(C#N)cnc3cc(/C=C/c4cccc(CN(C)C)c4)c(OC)cc23)c(Cl)cc1Cl showed an IC50 [9] of 3 nM.
With N#Cc1cnc2ccc(/C=C/CCN3CCOCC3)cc2c1Nc1ccc(Cl)cc1Cl the IC50 [9] was 1200 nM.
For COc1cc(Nc2c(C#N)cnc3cc(/C=C/c4cc(CN(C)C)ccn4)c(OC)cc23)c(Cl)cc1Cl, the IC50 [9] was 6.8 nM.
COc1cc(Nc2c(C#N)cnc3cc(/C=C/CCN4CCOCC4)ccc23)c(Cl)cc1Cl showed an IC50 [9] of 15 nM.
With COc1cc(Nc2c(C#N)cnc3cc(/C=C/c4ccc(CN(C)C)cn4)c(OC)cc23)c(Cl)cc1Cl the concentration at 24 h [1] was 36 ng/mL and the IC50 [9] was 2.2 nM.
Compound COc1cc(Nc2c(C#N)cnc3cc(/C=C/CCCN4CCOCC4)c(OC)cc23)c(Cl)cc1Cl has an IC50 [9] of 5.4 nM.
Work on N#Cc1cnc2cc(/C=C/CCN3CCOCC3)ccc2c1Nc1ccc(Cl)cc1Cl yielded an IC50 [9] of 41 nM.
In the case of COc1cc(Nc2c(C#N)cnc3c(/C=C/CCN4CCOCC4)cccc23)c(Cl)cc1Cl, the inhibition [12] is reported as 52%.
In the case of COc1cc(Nc2c(C#N)cnc3cc(/C=C/CCCCCCCCCN4CCOCC4)c(OC)cc23)c(Cl)cc1Cl, the IC50 [9] is reported as 130 nM.
Work on COc1cc(Nc2c(C#N)cnc3cc(/C=C/c4ccc(CN(C)C)cc4)c(OC)cc23)c(Cl)cc1Cl yielded a concentration at 24 h [1] of 10 ng/mL and an IC50 [9] of 2.4 nM.
Compound COc1cc(Nc2c(C#N)cnc3ccc(/C=C/CCN4CCOCC4)cc23)c(Cl)cc1Cl has an IC50 [9] of 340 nM.
CCN1CCN(CC/C=C/c2cc3ncc(C#N)c(Nc4cc(OC)c(Cl)cc4Cl)c3cc2OC)CC1 showed a half-life [2] greater than 30 min and an IC50 [9] of 1.7 nM.
For COc1cc(Nc2c(C#N)cnc3cc(/C=C/CCN4CCCCC4)c(OC)cc23)c(Cl)cc1Cl, the half-life [2] was greater than 30 min and the IC50 [9] was 2.6 nM.
Compound COc1cc(Nc2c(C#N)cnc3cc(/C=C/CCN4CCOCC4)c(OC)cc23)c(Cl)cc1Cl has an IC50 [9] of 4.8 nM.
In the case of COc1cc(Nc2c(C#N)cnc3cc(/C=C/CCCCN4CCOCC4)c(OC)cc23)c(Cl)cc1Cl, the IC50 [9] is reported as 18 nM.
In the case of COc1cc(Nc2c(C#N)cnc3cc(/C=C/CCN(C)C)c(OC)cc23)c(Cl)cc1Cl, the half-life [2] is reported as greater than 30 min and the IC50 [9] is reported as 2.5 nM.

Source: ChEMBL document CHEMBL1157919, “Optimization of 7-alkene-3-quinolinecarbonitriles as Src kinase inhibitors” (Bioorg Med Chem Lett, 2010)
